Measurements as given in patent publication US20220306695A1, “COMPSTATIN ANALOGUES AND THEIR MEDICAL USES” (priority 2019, published 2022).
Starred links: 1 amine or outer side, 2 acyl side, 3 side chain; linkers in the order of their positions; H or OH if unused. Positions of bridges follow the written chain, without caps; N, C: chain ends. Non-standard residues stand in square brackets, D forms with d. Residues, ends and D or L forms follow the SMILES beside them. Groups on a side chain read outwards from the residue. *: point of attachment. Trp(1-Me) = Cn1cc(C[C@H](N)C(=O)O)c2ccccc21; C16 diacid = O=C(O)CCCCCCCCCCCCCCC(=O)*; γGlu = O=C(O)[C@H](CCC(=O)[*:2])N[*:1]; 2Nal = N[C@@H](Cc1ccc2ccccc2c1)C(=O)O; AEEA = NCCOCCOCC(=O)O; Sar = CNCC(=O)O

Key:
[1] = Solubility test at 10 mg/mL (visual inspection and light scattering); format: physicochemical; settings: for Solubility, Condition 1 Acetate pH 4: 10 mg/mL compound in 100 mM acetate pH 4; for Solubility, Condition 2 Acetate pH 5: 10 mg/mL compound in 100 mM acetate pH 5; for Solubility, Condition 3 Phosphate pH 6: 10 mg/mL compound in 100 mM phosphate pH 6; for Solubility, Condition 4 Phosphate pH 7: 10 mg/mL compound in 100 mM phosphate pH 7; for Solubility, Condition 5 Phosphate pH 7.5: 10 mg/mL compound in 100 mM phosphate pH 7.5
[2] = test system: classical complement pathway; test: In vitro haemolysis assay (inhibition of classical complement pathway); format: cell-based, human; settings: Table 3; human serum, sensitized sheep red blood cells; read-out: IC50[nM], in vitro analysis of inhibition of hemolysis
Outline: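 Serially diluted compound (9 points) was preincubated 15 min at room temperature with diluted human serum, titrated per batch to give 70-90% maximal haemolysis, in Tris/casein buffer pH 7.4 with Mg2+/Ca2+. Antibody-sensitized sheep erythrocytes were then added for 30 min at 37° C, and the reaction was stopped with EDTA. Haemolysis was read at A405, with IC50 from 4PL fit.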

Compound	Solubility, Condition 1 Acetate pH 4 [1]	Solubility, Condition 2 Acetate pH 5 [1]	Solubility, Condition 3 Phosphate pH 6 [1]	Solubility, Condition 4 Phosphate pH 7 [1]	Solubility, Condition 5 Phosphate pH 7.5 [1]	IC50 [2] [nM]
CC[C@H](C)[C@@H]1NC(=O)[C@@H](NC(=O)[C@H](Cc2ccccc2)NC(=O)[C@H](C)NC(=O)[C@H](CO)NC(=O)CNC(=O)[C@H](CCC(=O)O)NC(C)=O)CSSC[C@@H](C(=O)N(C)CC(=O)N[C@@H](CCC(=O)O)C(N)=O)NC(=O)[C@H](CCCNC(=N)N)NC(=O)[C@H](Cc2c[nH]cn2)NC(=O)[C@H](CCC(=O)O)NC(=O)CNC(=O)[C@H](Cc2c[nH]c3ccccc23)NC(=O)[C@H](CC(=O)O)NC(=O)[C@H](CCC(N)=O)NC(=O)[C@H](Cc2c[nH]c3ccccc23)NC1=O [Compound 45] (Ac-EGSAFCIWQDWGEHRC[Sar]E-NH2; disulfide 6-16)	− (denotes lack of solubility at the given condition, as UV absorbance at 340 nm exceeds 0.1 AU and/or it is visibly turbid or contains particles.)	+ (denotes solubility at the given condition, as determined by UV absorbance being less than 0.1 AU at 340 nm and the sample being clear when manually inspected.)	+ (denotes solubility at the given condition, as determined by UV absorbance being less than 0.1 AU at 340 nm and the sample being clear when manually inspected.)	+ (denotes solubility at the given condition, as determined by UV absorbance being less than 0.1 AU at 340 nm and the sample being clear when manually inspected.)	+ (denotes solubility at the given condition, as determined by UV absorbance being less than 0.1 AU at 340 nm and the sample being clear when manually inspected.)	< 100
CC[C@H](C)[C@H](NC(C)=O)C(=O)N[C@H]1CSSC[C@@H](C(=O)N[C@H](C(=O)NCC(=O)N[C@@H](C)C(=O)N[C@@H](CCC(=O)O)C(=O)N[C@@H](CO)C(N)=O)[C@@H](C)O)NC(=O)[C@H](CCCNC(=N)N)NC(=O)[C@H](Cc2c[nH]cn2)NC(=O)[C@H](CCC(=O)O)NC(=O)CNC(=O)[C@H](Cc2c[nH]c3ccccc23)NC(=O)[C@H](CC(=O)O)NC(=O)[C@H](CCC(N)=O)NC(=O)[C@H](Cc2ccc3ccccc3c2)NC(=O)[C@H]([C@@H](C)CC)NC1=O [Compound 52] (Ac-ICI[2Nal]QDWGEHRCTGAES-NH2; disulfide 2-12)	− (denotes lack of solubility at the given condition, as UV absorbance at 340 nm exceeds 0.1 AU and/or it is visibly turbid or contains particles.)	− (denotes lack of solubility at the given condition, as UV absorbance at 340 nm exceeds 0.1 AU and/or it is visibly turbid or contains particles.)	+ (denotes solubility at the given condition, as determined by UV absorbance being less than 0.1 AU at 340 nm and the sample being clear when manually inspected.)	+ (denotes solubility at the given condition, as determined by UV absorbance being less than 0.1 AU at 340 nm and the sample being clear when manually inspected.)	+ (denotes solubility at the given condition, as determined by UV absorbance being less than 0.1 AU at 340 nm and the sample being clear when manually inspected.)	< 100
CC[C@H](C)[C@@H]1NC(=O)[C@@H](NC(=O)[C@H](Cc2ccc(O)cc2)NC(C)=O)CSSC[C@@H](C(=O)N[C@H](C(=O)NCC(=O)N[C@@H](C)C(=O)N[C@@H](CCC(=O)O)C(=O)N[C@@H](CO)C(N)=O)[C@@H](C)O)NC(=O)[C@H](CCCNC(=N)N)NC(=O)[C@H](Cc2c[nH]cn2)NC(=O)[C@H](CCC(=O)O)NC(=O)CNC(=O)[C@H](Cc2c[nH]c3ccccc23)NC(=O)[C@H](CC(=O)O)NC(=O)[C@H](CCC(N)=O)NC(=O)[C@H](Cc2cn(C)c3ccccc23)NC1=O [Compound 62] (Ac-YCI[Trp(1-Me)]QDWGEHRCTGAES-NH2; disulfide 2-12)	− (denotes lack of solubility at the given condition, as UV absorbance at 340 nm exceeds 0.1 AU and/or it is visibly turbid or contains particles.)	− (denotes lack of solubility at the given condition, as UV absorbance at 340 nm exceeds 0.1 AU and/or it is visibly turbid or contains particles.)	+ (denotes solubility at the given condition, as determined by UV absorbance being less than 0.1 AU at 340 nm and the sample being clear when manually inspected.)	+ (denotes solubility at the given condition, as determined by UV absorbance being less than 0.1 AU at 340 nm and the sample being clear when manually inspected.)	+ (denotes solubility at the given condition, as determined by UV absorbance being less than 0.1 AU at 340 nm and the sample being clear when manually inspected.)	< 100
CC[C@H](C)[C@@H]1NC(=O)[C@@H](NC(=O)[C@H](Cc2ccccc2)NC(C)=O)CSSC[C@@H](C(=O)N[C@H](C(=O)NCC(=O)N[C@@H](C)C(=O)N[C@@H](CCC(=O)O)C(=O)N[C@@H](CO)C(=O)N[C@@H](CCCCNC(=O)COCCOCCNC(=O)COCCOCCNC(=O)CC[C@H](NC(=O)CCCCCCCCCCCCCCC(=O)O)C(=O)O)C(N)=O)[C@@H](C)O)NC(=O)[C@H](CCCNC(=N)N)NC(=O)[C@H](Cc2c[nH]cn2)NC(=O)[C@H](CCC(=O)O)NC(=O)CNC(=O)[C@H](Cc2c[nH]c3ccccc23)NC(=O)[C@H](CC(=O)O)NC(=O)[C@H](CCC(N)=O)NC(=O)[C@H](Cc2cn(C)c3ccccc23)NC1=O [Compound 102] (Ac-FCI[Trp(1-Me)]QDWGEHRCTGAESK([AEEA-AEEA-γGlu-C16 diacid])-NH2; disulfide 2-12)	− (denotes lack of solubility at the given condition, as UV absorbance at 340 nm exceeds 0.1 AU and/or it is visibly turbid or contains particles.)	+ (denotes solubility at the given condition, as determined by UV absorbance being less than 0.1 AU at 340 nm and the sample being clear when manually inspected.)	+ (denotes solubility at the given condition, as determined by UV absorbance being less than 0.1 AU at 340 nm and the sample being clear when manually inspected.)	+ (denotes solubility at the given condition, as determined by UV absorbance being less than 0.1 AU at 340 nm and the sample being clear when manually inspected.)	+ (denotes solubility at the given condition, as determined by UV absorbance being less than 0.1 AU at 340 nm and the sample being clear when manually inspected.)	< 100
CC[C@H](C)[C@@H]1NC(=O)[C@@H](NC(=O)CN(C)C(=O)[C@H](CCC(=O)O)NC(=O)[C@H](CO)NC(C)=O)CSSC[C@@H](C(=O)N(C)CC(=O)N[C@@H](CCC(=O)O)C(=O)N[C@@H](C)C(N)=O)NC(=O)[C@H](CCCNC(=N)N)NC(=O)[C@H](Cc2c[nH]cn2)NC(=O)[C@H](CCC(=O)O)NC(=O)CNC(=O)[C@H](Cc2c[nH]c3ccccc23)NC(=O)[C@H](CC(=O)O)NC(=O)[C@H](CCC(N)=O)NC(=O)[C@H](Cc2cn(C)c3ccccc23)NC1=O [Compound 81] (Ac-SE[Sar]CI[Trp(1-Me)]QDWGEHRC[Sar]EA-NH2; disulfide 4-14)	− (denotes lack of solubility at the given condition, as UV absorbance at 340 nm exceeds 0.1 AU and/or it is visibly turbid or contains particles.)	− (denotes lack of solubility at the given condition, as UV absorbance at 340 nm exceeds 0.1 AU and/or it is visibly turbid or contains particles.)	+ (denotes solubility at the given condition, as determined by UV absorbance being less than 0.1 AU at 340 nm and the sample being clear when manually inspected.)	+ (denotes solubility at the given condition, as determined by UV absorbance being less than 0.1 AU at 340 nm and the sample being clear when manually inspected.)	+ (denotes solubility at the given condition, as determined by UV absorbance being less than 0.1 AU at 340 nm and the sample being clear when manually inspected.)	< 100
CC[C@H](C)[C@@H]1NC(=O)[C@@H](NC(=O)[C@@H](NC(=O)[C@H](CCC(=O)O)NC(=O)[C@H](CO)NC(=O)[C@H](CCC(=O)O)NC(C)=O)[C@@H](C)CC)CSSC[C@@H](C(=O)N[C@@H](CCC(=O)O)C(=O)NCC(=O)N[C@@H](CCC(=O)O)C(N)=O)NC(=O)[C@H](CCCNC(=N)N)NC(=O)[C@H](Cc2c[nH]cn2)NC(=O)[C@H](CCC(=O)O)NC(=O)CNC(=O)[C@H](Cc2c[nH]c3ccccc23)NC(=O)[C@H](CC(=O)O)NC(=O)[C@H](CCC(N)=O)NC(=O)[C@H](Cc2c[nH]c3ccccc23)NC1=O [Compound 36] (Ac-ESEICIWQDWGEHRCEGE-NH2; disulfide 5-15)	− (denotes lack of solubility at the given condition, as UV absorbance at 340 nm exceeds 0.1 AU and/or it is visibly turbid or contains particles.)	− (denotes lack of solubility at the given condition, as UV absorbance at 340 nm exceeds 0.1 AU and/or it is visibly turbid or contains particles.)	− (denotes lack of solubility at the given condition, as UV absorbance at 340 nm exceeds 0.1 AU and/or it is visibly turbid or contains particles.)	+ (denotes solubility at the given condition, as determined by UV absorbance being less than 0.1 AU at 340 nm and the sample being clear when manually inspected.)	+ (denotes solubility at the given condition, as determined by UV absorbance being less than 0.1 AU at 340 nm and the sample being clear when manually inspected.)	< 250
